Laboratory results: patent publication US11285188B2, “Composition for preventing or treating metabolic diseases containing artemisiae capillaris herba and citrus unshiu peel complex extracts as active ingredients” (Medicare Pharmaceuticals Inc., priority 2018, dated 2022)

System: high-fat diet mouse model
Assay: Therapeutic effect on hyperlipidemia and hypercholesterolemia in high-fat diet mouse model (blood cholesterol and triglycerides)
Format: in vivo
Details: high-fat diet female ICR mice, oral once a day for 12 weeks; complex extracts 100 mg/kg/day, Lovastatin 20 mg/kg/day
Description: 64 six-week-old female ICR mice were purchased from SLC Co. and acclimated for one week under breeding conditions of a temperature range of 22±1° C., a humidity range of 41±1%, and a 12-hour light/12-hour dark cycle. During this period, the mice were fed a normal diet. Then, the mice were randomly divided into 16 and 48 individuals. To adapt the mice to feed, the 16 individuals (a normal diet-fed group) were fed a normal diet (CA.170481, Teklad Co.) and the 48 individuals (a high-fat diet-fed group) were fed a high-fat diet (D12451, Research Diets Co.) containing 45 kcal % fat under the same breeding conditions as above for one week.
Specifically, eight mice were selected from the normal diet-fed group and assigned to a normal diet group. 24 mice were selected from the high-fat diet-fed group, eight of which were assigned to a high-fat diet group, a high-fat diet+complex extracts administration group, and a high-fat diet+Lovastatin administration group, respectively. Each experimental group was orally administered distilled water or the Artemisiae capillaris Herba and Citrus unshiu Peel complex extracts of Examples 1-3 containing the highest content of scoparone once a day for 12 weeks. In addition, a comparison group was orally administered Lovastatin (Hanmi Pharm. Co., Ltd), which is used to treat hyperlipidemia and hypercholesterolemia, once a day for 12 weeks. In this case, the complex extracts and Lovastatin were each suspended in distilled water and administered orally. In addition, the normal group was fed a normal diet and other experimental groups were fed a high-fat diet for 12 weeks.
In the experimental groups of Experimental Example <2-1>, changes in the contents of triglycerides and cholesterol were confirmed.
Specifically, each experimental group of Experimental Example <2-1> was orally administered samples for 12 weeks. On the last day of the experiment, all animals were bled under ether inhalation anesthesia, and 1 mL of the collected blood was centrifuged for 10 minutes at 3,000 rpm to isolate plasma. The contents of total cholesterol, triglycerides, and low density lipoprotein cholesterol (LDL) in the isolated plasma were measured using an Analyst III kit (Hemagen Diagnositics Co.) according to a manufacturer's procedure, and the content of high density lipoprotein cholesterol (HDL) was measured using an AU400 kit (Olympus Co.) according to a manufacturer's procedure.

CC[C@H](C)C(=O)O[C@H]1C[C@@H](C)C=C2C=C[C@H](C)[C@H](CC[C@@H]3C[C@@H](O)CC(=O)O3)[C@H]21 [Lovastatin]
Serum content HDL: 62.44 ± 1.96 mg/dL
Serum content LDL: 14.91 ± 0.46 mg/dL
Serum content Total cholesterol: 83.26 ± 7.40 mg/dL
Serum content Triglycerides: 81.43 ± 5.24 mg/dL
